Data reported in ChEMBL document CHEMBL1201862, “PubChem BioAssay data set” (2004).
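Tested at 5 concentrations; 48 h exposure; 96-well plates; endpoints linearly interpolated, else capped at highest concentration. Here, GI50 denotes the concentration required for 50% inhibition of growth.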 The source made the active and inactive calls. No stated cut-off is given here; in the data, active = GI50 up to about 1.1 µM and inactive = higher.

Experiments:
Assay in all cases: inhibition of tumour cell growth, NCI panel, 48 h
[1] = test system: ACHN
[2] = test system: HT-29
[3] = test system: NCI/ADR-RES
[4] = test system: T47D
[5] = test system: SK-MEL-5
[6] = test system: TK-10
[7] = test system: HCT-116
[8] = test system: NCI-H460
[9] = test system: SF-539
[10] = test system: UACC-62
[11] = test system: KM12
[12] = test system: SW-620
[13] = test system: CAKI-1
[14] = test system: SF-295
[15] = test system: SK-OV-3
[16] = test system: A549
[17] = test system: RXF 393
[18] = test system: IGROV-1
[19] = test system: Malme-3M
[20] = test system: SK-MEL-2
[21] = test system: HCC 2998
[22] = test system: RPMI-8226
[23] = test system: MDA-MB-231
[24] = test system: NCI-H226
[25] = test system: SR
[26] = test system: U-251
[27] = test system: HCT-15
[28] = test system: OVCAR-3
[29] = test system: MOLT-4
[30] = test system: Hs-578T
[31] = test system: MDA-N
[32] = test system: SN12C
[33] = test system: OVCAR-5
[34] = test system: NCI-H23
[35] = test system: UACC-257
[36] = test system: SF-268
[37] = test system: UO-31
[38] = test system: K562
[39] = test system: HL-60
[40] = test system: DU-145
[41] = test system: BT-549
[42] = test system: CCRF-CEM
[43] = test system: LOX IMVI
[44] = test system: SK-MEL-28
[45] = test system: A498
[46] = test system: MCF7
[47] = test system: 786-0
[48] = test system: SNB-19
[49] = test system: PC-3
[50] = test system: EKVX
[51] = test system: HOP-62
[52] = test system: OVCAR-4
[53] = test system: NCI-H522
[54] = test system: HOP-92
[55] = test system: M14
[56] = test system: MDA-MB-435
[57] = test system: COLO 205
[58] = test system: OVCAR-8
[59] = test system: SNB-75

CC[C@]1(O)CC(OC2CC(N(C)C)C(O)C(C)O2)c2c(cc3c(c2O)C(=O)c2c(O)cccc2C3=O)[C@@H]1C(=O)OC (stereo partly drawn)
GI50 [1]: 53.7 nM (active)
GI50 [2]: 107 nM (active)
GI50 [3]: 269 nM (active)
GI50 [4]: 649 nM (active)
GI50 [5]: 192 nM (active)
GI50 [6]: 472 nM (active)
GI50 [7]: 45.5 nM (active)
GI50 [8]: 45 nM (active)
GI50 [9]: 590 nM (active)
GI50 [10]: 196 nM (active)
GI50 [11]: 225 nM (active)
GI50 [12]: 39.2 nM (active)
GI50 [13]: 46.6 nM (active)
GI50 [14]: 195 nM (active)
GI50 [15]: 333 nM (active)
GI50 [16]: 136 nM (active)
GI50 [17]: 269 nM (active)
GI50 [18]: 119 nM (active)
GI50 [19]: 245 nM (active)
GI50 [20]: 381 nM (active)
GI50 [21]: 210 nM (active)
GI50 [22]: 125 nM (active)
GI50 [23]: 351 nM (active)
GI50 [24]: 243 nM (active)
GI50 [25]: 53.8 nM (active)
GI50 [26]: 151 nM (active)
GI50 [27]: 244 nM
GI50 [28]: 493 nM (active)
GI50 [29]: 40.5 nM (active)
GI50 [30]: 745 nM (active)
GI50 [31]: 384 nM (active)
GI50 [32]: 178 nM (active)
GI50 [33]: 718 nM (active)
GI50 [34]: 272 nM (active)
GI50 [35]: 347 nM (active)
GI50 [36]: 120 nM (active)
GI50 [37]: 173 nM (active)
GI50 [38]: 73.3 nM (active)
GI50 [39]: 249 nM (active)
GI50 [40]: 675 nM (active)
GI50 [41]: 1160 nM (inactive)
GI50 [42]: 117 nM (active)
GI50 [43]: 85.9 nM (active)
GI50 [44]: 664 nM (active)
GI50 [45]: 232 nM (active)
GI50 [46]: 292 nM (active)
GI50 [47]: 205 nM (active)
GI50 [48]: 328 nM (active)
GI50 [49]: 214 nM (active)
GI50 [50]: 493 nM (active)
GI50 [51]: 146 nM (active)
GI50 [52]: 114 nM (active)
GI50 [53]: 108 nM (active)
GI50 [54]: 220 nM (active)
GI50 [55]: 468 nM (active)
GI50 [56]: 291 nM (active)
GI50 [57]: 88.1 nM (active)
GI50 [58]: 74.3 nM (active)
GI50 [59]: 201 nM (active)

COC(=O)c1cc(C#N)[nH]c1-c1ccc(Br)s1
GI50 [1]: 13700 nM (inactive)
GI50 [2]: 12400 nM (inactive)
GI50 [3]: 10300 nM (inactive)
GI50 [4]: 1170 nM (inactive)
GI50 [5]: 4110 nM (inactive)
GI50 [6]: 13000 nM (inactive)
GI50 [7]: 13500 nM (inactive)
GI50 [8]: 17600 nM (inactive)
GI50 [9]: 12800 nM (inactive)
GI50 [10]: 11600 nM (inactive)
GI50 [11]: 16700 nM (inactive)
GI50 [12]: 15900 nM (inactive)
GI50 [13]: 19200 nM (inactive)
GI50 [14]: 8410 nM (inactive)
GI50 [15]: 11600 nM (inactive)
GI50 [16]: 8550 nM (inactive)
GI50 [17]: 4300 nM (inactive)
GI50 [18]: 7210 nM (inactive)
GI50 [19]: 7140 nM (inactive)
GI50 [20]: 6550 nM (inactive)
GI50 [21]: 17900 nM (inactive)
GI50 [22]: 5080 nM (inactive)
GI50 [23]: 14500 nM (inactive)
GI50 [24]: 8550 nM (inactive)
GI50 [25]: 16800 nM (inactive)
GI50 [26]: 10400 nM (inactive)
GI50 [27]: 13700 nM
GI50 [28]: 3580 nM (inactive)
GI50 [29]: 12300 nM (inactive)
GI50 [30]: 5740 nM (inactive)
GI50 [31]: 13700 nM (inactive)
GI50 [32]: 13100 nM (inactive)
GI50 [33]: 11200 nM (inactive)
GI50 [34]: 5080 nM (inactive)
GI50 [35]: 9400 nM (inactive)
GI50 [36]: 10100 nM (inactive)
GI50 [37]: 5700 nM (inactive)
GI50 [38]: > 30800 nM (inactive)
GI50 [39]: 11500 nM (inactive)
GI50 [40]: 10800 nM (inactive)
GI50 [41]: 10900 nM (inactive)
GI50 [42]: 21100 nM (inactive)
GI50 [43]: 9140 nM (inactive)
GI50 [44]: 11900 nM (inactive)
GI50 [45]: 1030 nM (active)
GI50 [46]: 459 nM (active)
GI50 [47]: 14500 nM (inactive)
GI50 [48]: 7740 nM (inactive)
GI50 [49]: 1750 nM (inactive)
GI50 [50]: 3970 nM (inactive)
GI50 [51]: 8390 nM (inactive)
GI50 [52]: 10100 nM (inactive)
GI50 [53]: 7030 nM (inactive)
GI50 [54]: 4100 nM (inactive)
GI50 [55]: 9730 nM (inactive)
GI50 [56]: 13500 nM (inactive)
GI50 [57]: 14100 nM (inactive)
GI50 [58]: 12800 nM (inactive)
GI50 [59]: 8850 nM (inactive)
